According to publication PMC9440176, “Novel benzylidene benzofuranone analogues as potential anticancer agents: design, synthesis and in vitro evaluation based on CDK2 inhibition assays” (3 Biotech, 2022):

Columns and labels:
HCT 116 cells = assay: Apoptotic DNA fragmentation study; format: cell-based, Human
Experimental: Cells were seeded at a concentration of 1 × 10^6 per 35 mm dish and incubated at 37 °C/5% CO2 for 24 h. The confluent cells grown after 24 h of incubation were treated with sample concentrations at 10 μg/ml, 20 μg/ml and control (without sample). After the treatment, cells were trypsinized and both the adherent as well as floating cells were collected by centrifugation at 2000 rpm for 5 min. The cell pellet was later suspended in 0.5 ml lysis buffer (pH 7.8) [Tris–HCl 10 mM, pH 8; EDTA 20 mM, pH 8.0; TritonX-100 0.2% and 4 M NaCl], vortexed vigorously and incubated at 50 °C for 5 min. To the lysate, 0.5 ml of phenol: chloroform: isoamylalcohol was added and mixed for about 2–3 min. Further, it was centrifuged at 10,000 rpm for 15 min at 4 °C.The upper aqueous layer was taken in another tube to which, twice the volume of cold 100% ethanol was added along with 3 M sodium acetate (Final concentration of sodium acetate 0.3 M). It was incubated for 5–10 min at room temperature. Further, centrifuged again at 10,000 rpm for 20 min. After removing the supernatant, the DNA pellet was washed in 70% ethanol and centrifuged at 5000 rpm for the next 10 min. The supernatant was removed, the DNA pellet was air dried and was finally dissolved in TE buffer (Tris–HCl 10 mM, pH 7.4, EDTA 1 mM, pH 8.0) and separated by 2% agarose gel electrophoresis at 100 V for 50 min.

HCT 116 = assay: MTT cytotoxicity assay on HCT 116; format: cell-based, Human; conditions: 24 h, read-out: Inhibition of cell proliferation, IC50, HCT 116
Experimental: The monolayer cell culture was trypsinized and the cell count was adjusted to 5.0 × 10^5 cells/ml using respective media containing 10% FBS. To each well of the 96-well microtiter plate, 100 µL of the diluted cell suspension (50,000cells/well) was added. After 24 h, when a partial monolayer was formed, the supernatant was flicked off, the monolayer was then washed once again with the medium and 100 µL of different test concentrations of test drugs were added on to the partial monolayer in microtiter plates. The plates were then incubated at 37 °C for 24 h in 5% CO2 atmosphere. After incubation, the test solutions in the wells were discarded and 100 µL of MTT (5 mg/10 ml of MTT in PBS) was added to each well. The plates were then incubated for 4 h at 37 °C in 5% CO2 atmosphere. The supernatant was then removed and 100 µL of DMSO was added and the plates were gently shaken to solubilize the formed formazan. The absorbance was measured using a microtiter plate reader at a wavelength of 590 nm. The percentage growth inhibition was thus calculated using the following formula and the concentration of the test drug required to inhibit the cell growth by 50% (IC50) values is generated from the dose–response curves for each one of the cell lines (Meerloo et al. [2011]).
The test compounds were screened for their in vitro cytotoxicity by MTT assay against two cancer cell lines, namely MCF-7, HCT-116 and normal epithelial kidney cells (Vero). Doxorubicin was used as a reference standard.

[1] = DPPH. free radical scavenging assay
Experimental: DPPH. assay was performed using 96-well plate by serial dilution method. The dilution of methanolic stock solution of the test compounds and standard anti-oxidants was carried out to obtain concentration in the range of 3.9–1000 µM. Quercetin and ascorbic acid were used as standards. To a 100 μL of this solution, 100 μL of 200 µM DPPH^. in methanolic solution was added. The experiment was done in triplicate and the plate was then incubated for 30 min in the dark and later the absorbance was measured at 517 nm using Elisa reader. The percentage DPPH^. Scavenging was calculated using the formula, (Control Absorbance–Test Absorbance)*100/(Control Absorbance). The anti-oxidant activity of the test compounds was expressed in terms of concentration required for 50 percentage inhibition (IC50) (Collins [2005]).

HCT116 cells = assay: Comet assay (DNA damage); format: cell-based, Human; conditions: 24 h, HCT-116
Experimental: To assess the genotoxicity effect of newly synthesized aurones, comet assay was performed on HCT -116 cell lines.
The agarose-coated glass slides were prepared according to the standard procedure (Tice et al. [2000]).
Compound selected—NISOA4.
Cell line used were- HCT116 cells (Human colorectal cancer cell lines).
HCT -116 (1 × 10^6) cells were treated with two different concentrations, 12.5, 25 μM of NISOA4 for 24 h.
The cells were centrifuged at 2000 rpm at 4 °C for 5 min followed by washing with PBS. Further, it was air dried and pellet was dissolved once again in PBS.
After keeping slides at 4 °C for 2 h, slides were removed from the lysis buffer and were placed side by side on a horizontal gel box near one end, sliding them as close together as possible.
The slides were placed on ice for 10 min and submerged in lysis buffer (2.5% NaCl, 100 mM EDTA, 10 mM Tris, 10% DMSO and 1% Troton X-100) at pH 10 at 4 °C for more than 1 h.
In the next step, the buffer reservoir was filled with freshly made electrophoresis buffer (pH > 13) until the liquid level was enough to cover the slides. […]
Slides were stained with 80 µL 1× Ethidium Bromide and left aside for 10 min followed by washing with PBS to remove the excess of stain. The slides were then scored immediately after washing.
The visualization of DNA damage was observed based on EtBr-staining technique using a 40× objective on a fluorescent microscope. The assessment of both qualitative as well as quantitative extent of DNA damage in the cells were carried out by measuring the length of DNA migration and the percentage of the migrated DNA using ImageJ software with open comet plug-in. Generally, 50 to 100 randomly selected cells are analysed per sample. Finally, the total tail amount was calculated. The final results are assessed by using the following parameters: (i)amount of migration per cell (ii) the number of cells with increased migration (iii) the extent of migration among damaged cells and (iv) cell viability (Końca et al. [2003]).

For COc1ccc(/C=C2\Oc3c(c(OC)cc(OC)c3C3=CCN(C(C)C)CC3)C2=O)cc1OC [NISOA4], the “DNA fragmentation on agarose gel” value (HCT 116 cells; 12.5 μM) was “smearing”, the “DNA fragmentation on agarose gel” value (HCT 116 cells; 25 μM) was “fragmentation in the form of DNA laddering” and the IC50 (HCT 116) was 21.2 µM. The IC50 [1] was 159 ± 0.45 µM, the “Olive moments (Mean ± SD)” value (HCT116 cells; 12.5 µM) was 25.38 and the “Olive moments (Mean ± SD)” value (HCT116 cells; 12.5 µM, listed as NISOA04) was 25.384 ± 24.333. For the same compound, the “Olive moments (Mean ± SD)” value (HCT116 cells; 25 µM, listed as NISOA04) was 73.582 ± 97.498.
